Measurements: patent US9895344B2, “Treating various disorders with 7,8-dihydroxyflavone and derivatives thereof” (EMORY UNIVERSITY, priority 2008, dated 2018)

Tests used:
[1] = target: T1, TrkB extracellular domain (ECD) (Rattus norvegicus, UniProt Q63604); experiment: In vitro binding assay with [3H]7,8-dihydroxyflavone, filter, Scatchard plot: TrkB ECD
T1 construct: purified TrkB extracellular domain (ECD) and intracellular domain (ICD) recombinant proteins
Protocol: To determine whether 7,8-dihydroxyflavone physically and directly binds the TrkB receptor, in vitro binding assays were conducted with purified TrkB extracellular domain (ECD) and intracellular domain (ICD) recombinant proteins. Purified TrkB ECD and ICD (10 μg of each) were incubated with different concentrations of ^3H-7,8-dihydroxyflavone in 1 ml of binding buffer (0.05M Na/K phosphate buffer, pH 7.1, 200 mM NaCl) at 4° C. for 10 minutes. After the incubation, the reaction mixture was loaded on filter paper. The mixture was washed three times with Tris buffer (100 mM Tris, pH 7.1), and the dried filter paper was put into a small vial and subjected to liquid scintillation counter analysis. […] The value of the dissociate constant and the number of sites were obtained from Scatchard plots using the equation r/[L]free=n/Kd−r/Kd, where r is the ratio of the concentration of bound ligand to the total protein concentration and n is the number of binding sites.

[2] = target: T2, TrkB ECD truncates (Rattus norvegicus, UniProt Q63604); experiment: Mapping assay with TrkB ECD truncation mutants; assay type: binding; conditions: FIG. 18
T2 construct: made in house
Protocol: (§1) BDNF is known to bind to the region of the TrkB ECD that contains the third leucine-rich motif (LRM), the second cysteine cluster (CC) domain, and the Immunoglobulin 2 (Ig2) domain (Haniu et al., J. Biol. Chem., 272:25296-303, 1997). To map where 7,8-dihydroxyflavone binds on the TrkB ECD, truncation mutants of the ECD were made and in vitro binding assays were conducted.

[3] = tested on: TrkB ECD truncates; experiment: Mapping assay with TrkB ECD truncation mutants; assay type: binding; conditions: FIG. 18
Protocol: as §1

[4] = tested on: KA-induced apoptosis in hippocampus; experiment: Kainic acid-induced apoptosis in mouse hippocampus (TUNEL); assay type: in vivo, C57BL/6 mice; conditions: 5 mg/kg intraperitoneally followed by 20 mg/kg KA, 5 days, FIG. 19
Description: Kainic acid (KA) is a potent agonist for the AMPA receptor. Peripheral injections of KA result in recurrent seizures and the subsequent degeneration of select populations of neurons in the hippocampus (Schauwecker and Steward, Proc. Natl. Acad. Sci. USA, 94:4103-8, 1997). KA induces neuronal cell death in a caspase-dependent and independent manners (Faherty et al., Brain Res. Mol. Brain. Res., 70:159-63, 1999; Glassford et al., Neurol. Res., 24:796-800, 2002; Liu et al., Mol. Cell, 29:665-78, 2008). To explore whether 7,8-dihydroxyflavone can block the neurotoxicity initiated by KA, C57BL/6 mice aged 60 days were intraperitoneally injected with either a single dose of 20% DMSO in saline, 20 mg/kg KA (Sigma), or 5 mg/kg of 7,8-dihydroxyflavone followed by 20 mg/kg of KA. In 5 days, the mice were anesthetized, perfused with 4% paraformaldehyde in 0.1M phosphate buffered saline, and the brains were removed, post-fixed overnight, and processed for paraffin embedding. Serial sections of the brain were cut to a thickness of 5 μm and mounted on slides (Superfrost-plus, Fisher; Pittsburgh, Pa.).

[5] = target: T3, TrkB (Mus musculus, UniProt P15209); experiment: Trk activation in cortical neurons from wild-type and TrkB-null pups: TrkB; assay type: cell-based, mice; conditions: wild-type but not TrkB-null neurons, FIG. 21
T3 construct: from tissue; host or cells: mouse brain
Protocol: To determine whether 7,8-dihydroxyflavone can selectively activate TrkB receptor and prevent neuronal cell death, cortical neurons were prepared from homozygous pups of TrkB+/−mice, which were mated to the same genotype. […] Glutamate nonselectively elicited weak TrkA phosphorylation in both wild-type and TrkB-null neurons (FIG. 21, row 3).

[6] = tested on: Caspase-3 activation; experiment: Caspase-3 activation in wild-type and TrkC-/- cortical neurons; assay type: cell-based, mice; conditions: FIG. 22 row 5
Protocol: To further assess whether 7,8-dihydroxyflavone blocks neuronal apoptosis in a TrkB dependent manner, cortical neurons were prepared from homozygous pups of TrkC+/−mice, which were mated to the same genotype. […] Glutamate weakly stimulated both TrkA and TrkB faint phosphorylation regardless of TrkC genotype (FIG. 22, rows 1 and 3). The spontaneous caspase-3 activation in TrkC−/− neurons was suppressed by 7,8-dihydroxyflavone (FIG. 22, row 5).

[7] = tested on: KA-induced caspase-3 activation; experiment: KA-induced neuronal cell death in TrkB F616A mice, oral TrkB agonists; assay type: in vivo, TrkB F616A knock-in mice
Protocol: TrkB F616A knockin mice (2-3 months old) were fed 1NMPP1 (25 μM) in drinking water one day before pharmacological reagent treatment. The next day, the mice were orally injected with 7,8-DHF or 4′-DMA-7,8-DHF (5 mg/kg) 4 hours before kainic acid (20 mg/kg). The control mice were injected with saline, 1NMPP1, kainic acid alone or administrated 7,8-DHF or 4′-DMA-7,8-DHF 4 hours before kainic acid. In 4 days, the mice were sacrificed and brains were homogenized and ultra-centrifuged. The supernatant (40 μg) was employed for SDS-PAGE and immunoblotting analysis with indicated antibodies, respectively.
To explore whether the neuroprotective effect of these small molecules is dependent on TrkB activation in vivo, TrkB F616A knock-in mice were used.

[8] = target: TrkB (Rattus norvegicus, UniProt Q63604); experiment: TrkB activation in primary cortical neurons (p-TrkB Y817 immunoblotting); assay type: cell-based; design: endogenous in cells; host or cells: primary cortical neurons; conditions: FIG. 27 right
Protocol: Primary cultured rat cortical neurons were prepared as follows. E17 rat pups were decapitated and cortex was extirpated, cross chopped, and suspended by pipetting for separation in 5% fetal calf serum (FCS), 5% horse serum (HS) DMEM. The cell suspension was then centrifuged at 250×g for 5 minutes. This operation was repeated again. Cells were seeded into polyethyleneimine-coated 10 cm^2 dishes and 12-well plates including coated-coverslips and incubated at 37° C. in 5% CO2/95% air. After 3 hours, the culture medium was changed to Neurobasal containing B-27 supplement (Invitrogen; Carlsbad, Calif.) and incubated for 4 days. For maintenance, half of the culture medium was changed to fresh Neurobasal/B27 every 4 days. After 1 week, the dished cultured neurons were ready for use.
To compare the TrkB activation by the synthetic compounds of Examples 9 and 10 (see FIG. 26), primary cortical cultures were prepared. The cortical neurons were treated with 500 nM of various compounds for 30 min and collected the cell lysates. […] Replacing the H-bond acceptor O atom with hydrogen bond donor NH reduced its stimulatory effect. […] In comparison, 7,8-DHF provoked TrkB activation with the minimal concentration of 100 nM (FIG. 27, right panels).

T1 sequence (Q63604 32-429 limits assumed): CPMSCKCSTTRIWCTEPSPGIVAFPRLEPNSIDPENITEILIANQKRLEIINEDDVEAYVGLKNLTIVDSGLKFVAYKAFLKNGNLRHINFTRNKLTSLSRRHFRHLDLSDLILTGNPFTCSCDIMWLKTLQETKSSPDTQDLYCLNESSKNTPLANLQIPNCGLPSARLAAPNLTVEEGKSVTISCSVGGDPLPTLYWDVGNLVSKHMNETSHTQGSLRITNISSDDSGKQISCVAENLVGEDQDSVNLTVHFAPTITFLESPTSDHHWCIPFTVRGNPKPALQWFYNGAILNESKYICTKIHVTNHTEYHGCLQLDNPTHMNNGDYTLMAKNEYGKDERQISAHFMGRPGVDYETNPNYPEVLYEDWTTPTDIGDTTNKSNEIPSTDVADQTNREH
Sequence of TrkB (Rattus norvegicus, UniProt Q63604) (Q63604 32-821): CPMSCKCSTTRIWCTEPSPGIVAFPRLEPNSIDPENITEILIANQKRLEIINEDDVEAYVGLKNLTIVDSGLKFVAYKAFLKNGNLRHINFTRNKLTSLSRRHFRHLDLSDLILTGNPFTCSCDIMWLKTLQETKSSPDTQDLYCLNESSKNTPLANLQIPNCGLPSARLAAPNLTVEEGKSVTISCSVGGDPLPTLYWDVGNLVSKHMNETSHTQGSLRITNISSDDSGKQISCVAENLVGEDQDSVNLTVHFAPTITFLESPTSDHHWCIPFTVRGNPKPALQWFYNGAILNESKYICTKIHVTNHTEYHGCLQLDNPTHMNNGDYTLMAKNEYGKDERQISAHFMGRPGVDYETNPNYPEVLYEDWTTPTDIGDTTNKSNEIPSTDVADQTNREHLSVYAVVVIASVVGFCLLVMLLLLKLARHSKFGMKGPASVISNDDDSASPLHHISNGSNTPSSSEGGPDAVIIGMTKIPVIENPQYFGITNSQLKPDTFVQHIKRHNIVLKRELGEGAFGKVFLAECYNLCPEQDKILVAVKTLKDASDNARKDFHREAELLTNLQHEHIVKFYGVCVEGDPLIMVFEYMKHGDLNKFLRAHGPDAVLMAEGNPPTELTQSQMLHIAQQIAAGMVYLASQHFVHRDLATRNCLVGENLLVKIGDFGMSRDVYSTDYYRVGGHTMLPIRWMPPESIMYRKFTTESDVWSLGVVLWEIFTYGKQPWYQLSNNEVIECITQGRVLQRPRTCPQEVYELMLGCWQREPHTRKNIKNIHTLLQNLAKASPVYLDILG
T3 sequence (P15209 32-821): as the sequence (Q63604 32-821) above, with M3T, T9S, T10A, I32V, K63R, G84S, T153M, I185L, T394S, N770S counted along it

O=c1cc(-c2ccccc2)oc2c(O)c(O)ccc12 [7,8-dihydroxyflavone]
Kd ([1]; Scatchard plot, 4° C., 10 minutes, FIG. 16, read-out: binding constant Kd): 320 nM | binding to TrkB ECD ([1]; gradual increments of [3H]-7,8-dihydroxyflavone): progressively bound TrkB ECD | association with the ECD [2]: strongly associated | binding to the ICD [2]: did not bind | association with the CC-2 domain [3]: strongly associated | association with the LRM-domain [3]: associated less strongly | binding to the CC-1 domain [3]: did not bind | KA-induced apoptosis in hippocampus [4]: decreased KA-induced apoptosis | TrkB activation in wild-type neurons [5]: specifically activates TrkB | spontaneous caspase-3 activation in TrkC-/- neurons [6]: suppressed | glutamate-triggered caspase-3 activation ([6]; regardless of TrkC genotype): significantly diminished | KA-caused caspase-3 activation ([7]; 5 mg/kg orally 4 hours before kainic acid (20 mg/kg), FIG. 31): markedly diminished | protective effect after 1NMPP1 pretreatment ([7]; 1NMPP1 (25 μM) in drinking water, FIG. 31 top): abolished | TrkB phosphorylation after 1NMPP1 pretreatment ([7]; FIG. 31, 2nd panel): notably blocked | minimal concentration triggering TrkB activation (titration assay) [8]: 100 nM
